Data on 24 molecules can be found in patent US20230203043A1, “NOVEL IMIDAZOPYRAZINE DERIVATIVES” (Hoffmann-La Roche Inc., priority 2020, published 2023).

The structures appear in SMILES notation. Where a name gives a salt, the structure may show the parent alone.

In one assay the test system is Acinetobacter baumannii ATCC17961. In words: Antimicrobial susceptibility testing: 90% growth inhibitory concentration (IC90) determination in Iso-Sensitest broth, OD600 growth. The assay is classed as cell-based. Conditions: Acinetobacter baumannii, ATCC17961, 16 h, read-out: A. baumannii ATCC 17961 IC90 (uM), strain ATCC 17961, OD600 growth over 16 h. The essentials: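 Twofold compound dilutions (e.g. 50 to 0.097 μM final) in Iso-Sensitest broth with ~5×10^(5) CFU/ml, 35±2 °C. OD600 read every 20 min over 16 h; IC90 from growth inhibition during logarithmic phase.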
For orientation: IC90 means the concentration at which the effect reaches the 90% level. Turning to `CCc1cc(Nc2nccn3c(-c4cn(CCF)nc4C(F)(F)F)cnc23)ccc1C(=O)NCCOCCN` [Example 301, N-[2-(2-aminoethoxy)ethyl]-2-ethyl-4-[[3-[1-(2-fluoroethyl)-3-(trifluoromethyl)pyrazol-4-yl]imidazo[1,2-a]pyrazin-8-yl]amino]benzamide formate], the IC90 worked out at 0.164 µM.
Regarding `CCc1cc(Nc2nccn3c(-c4c[nH]nc4C(F)(F)F)cnc23)ccc1C(=O)NCCNC(=O)NCCN` [Example 218, N-[2-(2-aminoethylcarbamoylamino)ethyl]-2-ethyl-4-[[3-[3-(trifluoromethyl)-1H-pyrazol-4-yl]imidazo[1,2-a]pyrazin-8-yl]amino]benzamide formate], the 90% effect concentration (IC90) was found to be 0.574 µM.
In the case of `C#CC(C)n1cc(-c2cnc3c(Nc4ccc(C(=O)NCCOCCN)c(CC)c4)nccn23)c(C(F)(F)F)n1` (stereo not drawn) [Example 232, N-[2-(2-aminoethoxy)ethyl]-4-[[3-[1-but-3-yn-2-yl-3-(trifluoromethyl)pyrazol-4-yl]imidazo[1,2-a]pyrazin-8-yl]amino]-2-ethylbenzamide formate], the concentration for an effect of 90% (IC90) was found to be 0.124 µM.
Regarding `CCc1cc(Nc2nccn3c(-c4c[nH]nc4C(F)(F)F)cnc23)ccc1C(=O)NCCCNC(=O)[C@@H](C)N` [Example 677, (R)-N-(3-(2-aminopropanamido)propyl)-2-ethyl-4-((3-(3-(trifluoromethyl)-1H-pyrazol-4-yl)imidazo [1,2-a]pyrazin-8-yl)amino)benzamide formate], the IC90 is 0.317 µM.
In the case of `N#CCn1cc(-c2cnc3c(Nc4ccc(C(=O)NCC(=O)N[C@H]5CCNC5)c(Cl)c4)nccn23)c(C(F)(F)F)n1` [Example 731, 2-chloro-4-[[3-[1-(cyanomethyl)-3-(trifluoromethyl)pyrazol-4-yl]imidazo[1,2-a]pyrazin-8-yl]amino]-N-[2-oxo-2-[[(3S)-pyrrolidin-3-yl]amino]ethyl]benzamide formate], the IC90 turned out to be 0.476 µM.
As to `Cc1cc(Nc2nccn3c(-c4cn(CC#N)nc4C(F)(F)F)cnc23)ccc1C(=O)NCCNC(=O)[C@@H]1C[C@@H](O)CN1` [Example 375, (2S,4R)-N-[2-[[4-[[3-[1-(cyanomethyl)-3-(trifluoromethyl)pyrazol-4-yl]imidazo[1,2-a]pyrazin-8-yl]amino]-2-methylbenzoyl]amino]ethyl]-4-hydroxypyrrolidine-2-carboxamide formate], the concentration for an effect of 90% (IC90) was found to be 0.338 µM.
In the case of `COCCn1cc(-c2cnc3c(Nc4ccc(C(=O)N5CCN(C(=O)N[C@H]6CCNC6)CC5)c(Cl)c4)nccn23)c(C(F)(F)F)n1` [Example 293, 4-[2-chloro-4-[[3-[1-(2-methoxyethyl)-3-(trifluoromethyl)pyrazol-4-yl]imidazo[1,2-a]pyrazin-8-yl]amino]benzoyl]-N-[(3S)-pyrrolidin-3-yl]piperazine-1-carboxamide formate], the 90% effect concentration (IC90) came to 0.429 µM.
As for `CCc1cc(Nc2nccn3c(-c4cn(CC#N)nc4C(F)(F)F)cnc23)ccc1C(=O)NCC(=O)N1CC2(CC(N)C2)C1` [Example 508, N-[2-(6-amino-2-azaspiro[3.3]heptan-2-yl)-2-oxo-ethyl]-4-[[3-[1-(cyanomethyl)-3-(trifluoromethyl)pyrazol-4-yl]imidazo[1,2-a]pyrazin-8-yl]amino]-2-ethyl-benzamide formate], the IC90 was 0.198 µM.
The same measure, in the same setting: to `Cn1cc(Cn2cc(-c3cnc4c(Nc5ccc(C(=O)N6CCNCC6)c(Cl)c5)nccn34)c(C(F)(F)F)n2)cn1` [Example 134, [2-chloro-4-[[3-[1-[(1-methylpyrazol-4-yl)methyl]-3-(trifluoromethyl)pyrazol-4-yl]imidazo[1,2-a]pyrazin-8-yl]amino]phenyl]-piperazin-1-ylmethanone formate] belongs 0.768 µM.
Regarding `CCc1cc(Nc2nccn3c(-c4cn(CC(F)F)nc4C(F)(F)F)cnc23)ccc1C(=O)NCCCNC(=O)[C@@H](C)N` [Example 633, (R)-N-(3-(2-aminopropanamido)propyl)-4-((3-(1-(2,2-difluoroethyl)-3-(trifluoromethyl)-1H-pyrazol-4-yl)imidazo[1,2-a]pyrazin-8-yl)amino)-2-ethylbenzamide formate], the IC90 amounted to 0.214 µM.
With `Cc1cc(Nc2nccn3c(-c4cn(CC#N)nc4C(F)(F)F)cnc23)cc(F)c1C(=O)N[C@H](C)CNC(=O)[C@H](C)N` [Example 722, N-((R)-1-((S)-2-aminopropanamido)propan-2-yl)-4-((3-(1-(cyanomethyl)-3-(trifluoromethyl)-1H-pyrazol-4-yl)imidazo[1,2-a]pyrazin-8-yl)amino)-2-fluoro-6-methylbenzamide formate], the IC90 was 0.458 µM.
Same read-out and setting: to `CCc1cc(Nc2nccn3c(-c4cn(CC(F)F)nc4C(F)(F)F)cnc23)ccc1C(=O)NCC(=O)NCC1(O)CCNCC1` [Example 551, 4-[[3-[1-(2,2-difluoroethyl)-3-(trifluoromethyl)pyrazol-4-yl]imidazo[1,2-a]pyrazin-8-yl]amino]-2-ethyl-N-[2-[(4-hydroxy-4-piperidyl)methylamino]-2-oxo-ethyl]benzamide formate] belongs 0.357 µM.

The assay is the same for the next values; noted with them: Acinetobacter baumannii, ATCC17961, 16 h, strain ATCC 17961, OD600 growth over 16 h, read-out: A. baumannii ATCC 17961 IC90.
Regarding `NCCC(=O)NCCNC(=O)c1ccc(Nc2nccn3c(-c4c[nH]nc4C(F)(F)F)cnc23)cc1Cl` [Example 299, N-[2-(3-aminopropanoylamino)ethyl]-2-chloro-4-[[3-[3-(trifluoromethyl)-1H-pyrazol-4-yl]imidazo[1,2-a]pyrazin-8-yl]amino]benzamide], the IC90 was found to be 0.699 µM.
On the same count and under the same terms, for `CCc1cc(Nc2nccn3c(-c4cn(CC#N)nc4C(F)(F)F)cnc23)ccc1C(=O)NCCCNC(=O)[C@H]1C[C@@H](N)C1` [Example 482, N-(3-((1s,3s)-3-aminocyclobutane-1-carboxamido)propyl)-4-((3-(1-(cyanomethyl)-3-(trifluoromethyl)-1H-pyrazol-4-yl)imidazo[1,2-a]pyrazin-8-yl)amino)-2-ethylbenzamide formate] the value was 0.174 µM; for `NC12CC(NC(=O)c3ccc(Nc4nccn5c(-c6cn(CC(F)F)nc6C(F)(F)F)cnc45)cc3Cl)(C1)C2` [Example 87, N-(3-amino-1-bicyclo[1.1.1]pentanyl)-2-chloro-4-[[3-[1-(2,2-difluoroethyl)-3-(trifluoromethyl)pyrazol-4-yl]imidazo[1,2-a]pyrazin-8-yl]amino]benzamide], 0.359 µM.
For `Cc1cc(Nc2nccn3c(-c4c[nH]nc4C(F)(F)F)cnc23)ccc1C(=O)N1CCN(C(=O)[C@H](C)N)CC1` [Example 331, (2S)-2-amino-1-[4-[2-methyl-4-[[3-[3-(trifluoromethyl)-1H-pyrazol-4-yl]imidazo[1,2-a]pyrazin-8-yl]amino]benzoyl]piperazin-1-yl]propan-1-one], the IC90 was 0.401 µM.
With `N[C@@H]1CC[C@H](C(=O)N2CCN(C(=O)c3ccc(Nc4nccn5c(-c6cn(CC(F)F)nc6C(F)(F)F)cnc45)cc3F)CC2)C1` [Example 806, (4-((1S,3R)-3-aminocyclopentane-1-carbonyl)piperazin-1-yl)(4-((3-(1-(2,2-difluoroethyl)-3-(trifluoromethyl)-1H-pyrazol-4-yl)imidazo[1,2-α]pyrazin-8-yl)amino)-2-fluorophenyl)methanone hydrochloride], the concentration for an effect of 90% (IC90) amounted to 0.25 µM.
As to `N#CCn1cc(-c2cnc3c(Nc4ccc(C(=O)N5CC(NC(=O)C6CCNCC6)C5)c(Cl)c4)nccn23)c(C(F)(F)F)n1` [Example 170, N-[1-[2-chloro-4-[[3-[1-(cyanomethyl)-3-(trifluoromethyl)pyrazol-4-yl]imidazo[1,2-a]pyrazin-8-yl]amino]benzoyl]azetidin-3-yl]piperidine-4-carboxamide], the IC90 is 0.475 µM.
Turning to `NCCCC(=O)NCCCNC(=O)c1ccc(Nc2nccn3c(-c4c[nH]nc4C(F)(F)F)cnc23)cc1Cl` [Example 344, N-[3-(4-aminobutanoylamino)propyl]-2-chloro-4-[[3-[3-(trifluoromethyl)-1H-pyrazol-4-yl]imidazo[1,2-a]pyrazin-8-yl]amino]benzamide formate], the IC90 is 0.572 µM.
The same measure, in the same setting: to `Cc1cc(Nc2nccn3c(-c4cn(CC(F)F)nc4C(F)(F)F)cnc23)cc(F)c1C(=O)N[C@H](C)CNC(=O)CN` [Example 673, (R)-N-(1-(2-aminoacetamido)propan-2-yl)-4-((3-(1-(2,2-difluoroethyl)-3-(trifluoromethyl)-1H-pyrazol-4-yl)imidazo[1,2-a]pyrazin-8-yl)amino)-2-fluoro-6-methylbenzamide] belongs 0.314 µM; to `Cc1cc(Nc2nccn3c(-c4cn(CC(F)F)nc4C(F)(F)F)cnc23)cc(F)c1C(=O)N1CCN(C(=O)[C@H](C)N)CC1` [Example 664, (S)-2-amino-1-(4-(4-((3-(1-(2,2-difluoroethyl)-3-(trifluoromethyl)-1H-pyrazol-4-yl)imidazo [1,2-a]pyrazin-8-yl)amino)-2-fluoro-6-methylbenzoyl)piperazin-1-yl)propan-1-one], 0.286 µM; to `Cc1cc(Nc2nccn3c(-c4cn(CCF)nc4C(F)(F)F)cnc23)ccc1C(=O)NCCOCCN` [Example 253, N-[2-(2-aminoethoxy)ethyl]-4-[[3-[1-(2-fluoroethyl)-3-(trifluoromethyl)pyrazol-4-yl]imidazo[1,2-a]pyrazin-8-yl]amino]-2-methylbenzamide], 0.198 µM.

The same assay, now with this note: strain ATCC 17961, OD600 growth over 16 h, read-out: A. baumannii ATCC 17961 IC90.
Turning to `COCCn1cc(-c2cnc3c(Nc4ccc(C(=O)N5CCN(C(=O)NCCN)CC5)c(Cl)c4)nccn23)c(C(F)(F)F)n1` [Example 290, N-(2-aminoethyl)-4-[2-chloro-4-[[3-[1-(2-methoxyethyl)-3-(trifluoromethyl)pyrazol-4-yl]imidazo[1,2-a]pyrazin-8-yl]amino]benzoyl] piperazine-1-carboxamide formate], the 90% effect concentration (IC90) came to 0.33 µM.
For `NC1CC(NC(=O)N2CCN(C(=O)c3ccc(Nc4nccn5c(-c6c[nH]nc6C(F)(F)F)cnc45)cc3Cl)CC2)C1` (stereo not drawn) [Example 289, N-(3-aminocyclobutyl)-4-[2-chloro-4-[[3-[3-(trifluoromethyl)-1H-pyrazol-4-yl]imidazo[1,2-a]pyrazin-8-yl]amino]benzoyl] piperazine-1-carboxamide formate], the IC90 worked out at 0.234 µM.
